In EP2611847B1, “AMPHIPHILE FOR SOLUBILIZATION OF WATER-SOLUBLE ACTIVE INGREDIENTS” (BASF SE, priority 2010, dated 2012):
≈ marks a conversion by molar mass, not a printed value. Where two headings read alike, the source gives them in different places.

Assay: physchem
Assay type: physicochemical
Conditions: for solubility thermodynamic at 24 h: thermodynamic from solid
Description: In einem 50 mL Becherglas wurden 100 mg Polymer eingewogen und in 9,900 g dest. Wasser gelöst. Anschließend wurde dem Ansatz jeweils 100 mg Wirkstoff zugewogen, um eine übersättigte Lösung zu erhalten. Das Gemisch wurde nun 24 h bei Raumtemperatur mit Hilfe eines Magnetrührers gerührt. Nach einstündiger Ruhezeit wurde überschüssiger (d.h. nicht solubilisierter) Wirkstoff durch Zentrifugieren abgetrennt. Die so erhaltene, klare bzw. opake Lösung wurde anschließend auf ihren Wirkstoffgehalt mittels UV-Spektroskopie untersucht. Die Wellenlänge der UV-spektroskopischen Messung sind in Tabelle 1 zusammengestellt. Die Ergebnisse sind in Tabelle 2 zusammengestellt.

[1] = active alone in dist. water without polymer (not according to the invention), 24 h at room temperature

Row | SMILES | Löslichkeit Ohne Polymer [1] | further results
1 | NC(=O)N1c2ccccc2C=Cc2ccccc21 [Carbamazepin] | 140 mg/L | –
2 | N#Cc1nn(-c2c(Cl)cc(C(F)(F)F)cc2Cl)c(N)c1[S+]([O-])C(F)(F)F (stereo not shown) [Fipronil] | – | solubility thermodynamic at 24 h (distilled water without polymer, active alone in dist. water without polymer (not according to the invention), 24 h at room temperature, read-out: Löslichkeit Ohne Polymer): 3 µg/mL (≈ 6.86 µM)
3 | CN1C(C(=O)Nc2ccccn2)=C(O)c2ccccc2S1(=O)=O [Piroxicam] | – | solubility thermodynamic at 24 h (water): 21 µg/mL (≈ 63.4 µM)
4 | COC(=O)N(OC)c1ccccc1COc1ccn(-c2ccc(Cl)cc2)n1 [Pyraclostrobin] | 22,5 mg/l | –
